Reference: patent US10294269B2, “Dipeptidyl ketoamide compounds and their use for the treatment and/or prevention of fat accumulation” (LANDSTEINER GENMED, S.L., priority 2014, dated 2019)

The compounds below were run on 3T3-L1 pre-adipocyte cell line (assay: Mouse 3T3-L1 pre-adipocyte cells differentiation assay (Nile Red lipid fluorescence)). Conditions: % of adipogenesis inhibition; compound at 25 μM in differentiation medium (2 days) and insulin medium (2 days); 3T3-L1 cells.
Type: cell-based
Method: Mouse 3T3-L1 Pre-Adipocyte Cells Differentiation Assay
Cell Culture and Treatment
Mouse (Mus musculus) 3T3-L1 pre-adipocyte cell line was purchased at ATCC.
Induction of adipocyte differentiation was performed according to Choi K C et al “The role of ghrelin and growth hormone secretagogues receptor on rat adipogenesis” Endocrinol 144: 754-759, 2003 with some modifications.
Briefly, 3T3-L1 pre-adipocytes were seeded in 24 well culture plates at a density of 3×10^4 cells/well in growth medium (DMEM containing 4.5 g/L glucose, 1 mM sodium pyruvate, 2 mM L-glutamine, 100 μg/mL streptomycin/penicilline, 25 mM HEPES and 10% calf serum (heat inactivated)). The resulting solution is used as a blank in the measure of fluorescence described below.
Cells were incubated at 37° C., 95% humidity and 10% CO2. Two days after reaching confluence (ninth day) growth medium was changed to differentiation medium (DMEM containing 4.5 g/L glucose, 2 mM L-glutamine, 100 μg/mL streptomycin/penicilline, 25 mM HEPES, 10% FBS (heat inactivated), 1 mM sodium pyruvate, 0.5 mM 3-isobutyl-1-methylxanthine, 0.25 μM dexamethasone, and 5 μg/mL insulin). After 48 h, the medium was replaced by insulin medium (DMEM containing 4.5 g/L glucose, 1 mM sodium pyruvate, 2 mM L-glutamine, 100 μg/mL streptomycin/penicillin, 25 mM HEPES, 10% FBS (inactivated) and 5 μg/mL insulin) for another 48 hours, and then incubated in 10% FBS/DMEM (same as insulin medium without insulin) for 4 days up to their complete differentiation.
The compounds to be tested were added at the 25 μM concentration to the differentiation medium (2 days) and to the insulin medium (2 days).
After incubation, the intracellular stored lipids were quantified by measuring the fluorescence after staining the lipids with the fluorescent dye Nile Red (9-diethylamino-5-benzo[α]phenoxazinone).
To carry out said lipid measurement, cells were lysed in hypotonic buffer (1 mM Tris-HCl pH=7.5) containing 2 μg/ml of Nile Red (9-diethylamino-5-benzo[t]phenoxazinone) for 15 min at 37° C.
Lysed cells were homogenized and TAG content was determined by monitoring Nile Red fluorescence in a laser spectral fluorometer. Excitation 522 nm; Emission 574 nm.
For each compound to be tested the following fluorescence measures were recorded: • FC: Fluorescence of a sample of lysed cells incubated in the presence of the compound in both the differentiation medium and in the insulin medium. • FB: Fluorescence of a blank sample of sample of pre-adipocytes in growth medium. • FNC: Fluorescence of a sample of lysed cells incubated with the differentiation medium and insulin medium not comprising any additional compound.
The inhibition of adipogenesis in the presence of the tested compounds is calculated from the following equation: % of adipogenesis inhibition=100−[100×((FC−FB)/(FNC−FB))]
% of adipogenesis inhibition (reflecting the activity against 3T3-L1 cell differentiation into adipocytes) was determined for each compound, and the effect at the […] has been chosen as the most representative value as to be shown in the structure-activity table.

“N-[(1S)-1-(1-benzyl-2-tert-butylcarbamoyl-2-oxo-ethylcarbamoyl)-3-methyl-butyl]-benzamide [Example 52]” was tested, and the Adipogenesis inhibition score was “++ (Inhibition between >15% and 30%)”.

Same assay, conditions: Mus musculus, 48 h; % of adipogenesis inhibition; compound at 25 μM in differentiation medium (2 days) and insulin medium (2 days); 3T3-L1 cells; read-out: Adipogenesis inhibition score

First: CONC(=O)C(=O)C(Cc1ccccc1)NC(=O)[C@H](CC(C)C)NC(=O)c1cccc(OC)c1 (stereo partly drawn) [Example 61, N-[(1S)-1-(1-benzyl-2-methoxycarbamoyl-2-oxo-ethylcarbamoyl)-3-methyl-butyl]-3-methoxy-benzamide]
Second: COc1cccc(C(=O)N[C@@H](CC(C)C)C(=O)NC(Cc2ccccc2)C(=O)C(=O)NC(C)(C)C)c1 (stereo partly drawn) [Example 7, N-((2S)-1-((4-(tert-butylamino)-3,4-dioxo-1-phenylbutan-2-yl)amino)-4-methyl-1-oxopentan-2-yl)-3-methoxybenzamide]
The inhibition at 25 µM of the first is higher: 30 to 80% for the first, 15 to 30% for the second.

First: CC(C)C[C@H](NC(=O)c1cnccc1Cl)C(=O)NC(Cc1ccccc1)C(=O)C(=O)NC(C)(C)C (stereo partly drawn) [Example 60, N-[(1S)-1-(1-benzyl-2-tert-butylcarbamoyl-2-oxo-ethylcarbamoyl)-3-methyl-butyl]-4-chloro-nicotinamide]
Second: CC(C)C[C@H](NC(=O)c1cccnc1)C(=O)NC(Cc1ccccc1)C(=O)C(=O)NC(C)(C)C (stereo partly drawn) [Example 21, N-((2S)-1-((4-(tert-butylamino)-3,4-dioxo-1-phenylbutan-2-yl)amino)-4-methyl-1-oxopentan-2-yl)nicotinamide]
The inhibition at 25 µM of the first is higher: 30 to 80% for the first, 1 to 15% for the second.

Compared with `CC(C)C[C@H](NC(=O)c1cccc2cnccc12)C(=O)NC(Cc1ccccc1)C(=O)C(=O)NC(C)(C)C` (stereo partly drawn) [Example 11, N-((2S)-1-((4-(tert-butylamino)-3,4-dioxo-1-phenylbutan-2-yl)amino)-4-methyl-1-oxopentan-2-yl)isoquinoline-5-carboxamide], `Cc1ccccc1C(=O)N[C@@H](CC(C)C)C(=O)NC(Cc1ccccc1)C(=O)C(=O)NC(C)(C)C` (stereo partly drawn) [Example 56, N-[(1S)-1-(1-benzyl-2-tert-butylcarbamoyl-2-oxo-ethylcarbamoyl)-3-methyl-butyl]-2-methyl-benzamide] is lower in inhibition at 25 µM: 30 to 80% for the first, 15 to 30% for the second.

`CC(C)C[C@H](NC(=O)c1ccccc1)C(=O)NC(Cc1ccccc1)C(=O)C(=O)NC(C)(C)C` (stereo partly drawn) [Example 18, N-((2S)-1-((4-(tert-butylamino)-3,4-dioxo-1-phenylbutan-2-yl)amino)-4-methyl-1-oxopentan-2-yl)benzamide] and `CCNC(=O)C(=O)C(Cc1ccccc1)NC(=O)[C@H](CC(C)C)NC(=O)c1ccccc1` (stereo partly drawn) [Example 1, N-((2S)-1-((4-(ethylamino)-3,4-dioxo-1-phenylbutan-2-yl)amino)-4-methyl-1-oxopentan-2-yl)benzamide] fall in the same range of inhibition at 25 µM: 15 to 30% for the first, 15 to 30% for the second.

`CC(C)C[C@H](NC(=O)c1cncnc1)C(=O)NC(Cc1ccccc1)C(=O)C(=O)NC(C)(C)C` (stereo partly drawn) [Example 8, N-((2S)-1-((4-(tert-butylamino)-3,4-dioxo-1-phenylbutan-2-yl)amino)-4-methyl-1-oxopentan-2-yl)pyrimidine-5-carboxamide] and `CC(C)C[C@H](NC(=O)c1cncc(F)c1)C(=O)NC(Cc1ccccc1)C(=O)C(=O)NC(C)(C)C` (stereo partly drawn) [Example 31, N-((2S)-1-(4-(tert-butylamino)-3,4-dioxo-1-phenylbutan-2-ylamino)-4-methyl-1-oxopentan-2-yl)-5-fluoronicotinamide] fall in the same range of inhibition at 25 µM: 1 to 15% for the first, 1 to 15% for the second.

`CC(C)C[C@H](NC(=O)c1ccccc1)C(=O)NC(Cc1ccccc1)C(=O)C(=O)NC1CCCCC1` (stereo partly drawn) [Example 58, N-[(1S)-1-(1-benzyl-2-cyclohexylcarbamoyl-2-oxo-ethylcarbamoyl)-3-methyl-butyl]-benzamide] and `CC(C)C[C@H](NC(=O)c1ccccc1)C(=O)NC(Cc1ccccc1)C(=O)C(=O)NC1CC1` (stereo partly drawn) [Example 20, N-((2S)-1-((4-(cyclopropylamino)-3,4-dioxo-1-phenylbutan-2-yl)amino)-4-methyl-1-oxopentan-2-yl)benzamide] fall in the same range of inhibition at 25 µM: 30 to 80% for the first, 30 to 80% for the second.

First: CCNC(=O)C(=O)C(Cc1ccccc1)NC(=O)[C@H](CC(C)C)NC(=O)c1ccccn1 (stereo partly drawn) [Example 4, N-((2S)-1-((4-(ethylamino)-3,4-dioxo-1-phenylbutan-2-yl)amino)-4-methyl-1-oxopentan-2-yl)picolinamide]
Second: CCNC(=O)C(=O)C(Cc1ccccc1)NC(=O)[C@H](CC(C)C)NC(=O)c1cncnc1 (stereo partly drawn) [Example 6, N-((2S)-1-((4-(ethylamino)-3,4-dioxo-1-phenylbutan-2-yl)amino)-4-methyl-1-oxopentan-2-yl)pyrimidine-5-carboxamide]
The inhibition at 25 µM of the first is lower: 1 to 15% for the first, 15 to 30% for the second.

`CC(C)C[C@H](NC(=O)C1CCOCC1)C(=O)NC(Cc1ccccc1)C(=O)C(=O)NC(C)(C)C` (stereo partly drawn) [Example 57, Tetrahydro-pyran-4-carboxylic acid [(1S)-1-(1-benzyl-2-tert-butylcarbamoyl-2-oxo-ethylcarbamoyl)-3-methyl-butyl]-amide] and `CCNC(=O)C(=O)C(Cc1ccccc1)NC(=O)[C@H](CC(C)C)NC(=O)NC(C)(C)C` (stereo partly drawn) [Example 65, (2S)-2-(3-tert-butylureido)-N-(4-(ethylamino)-3,4-dioxo-1-phenylbutan-2-yl)-4-methylpentanamide] fall in the same range of inhibition at 25 µM: 15 to 30% for the first, 15 to 30% for the second.

`CC(C)C[C@H](NC(=O)c1cnc2ccccc2c1)C(=O)NC(Cc1ccccc1)C(=O)C(=O)NC(C)(C)C` (stereo partly drawn) [Example 54, Quinoline-3-carboxylic acid [(1S)-1-(1-benzyl-2-tert-butylcarbamoyl-2-oxo-ethylcarbamoyl)-3-methyl-butyl]-amide] and `Cc1ccc(C(=O)N[C@@H](CC(C)C)C(=O)NC(Cc2ccccc2)C(=O)C(=O)NC(C)(C)C)cn1` (stereo partly drawn) [Example 25, N-((2S)-1-((4-(tert-butylamino)-3,4-dioxo-1-phenylbutan-2-yl)amino)-4-methyl-1-oxopentan-2-yl)-6-methylnicotinamide] fall in the same range of inhibition at 25 µM: 30 to 80% for the first, 30 to 80% for the second.

First: CC(C)C[C@H](NC(=O)c1cnccn1)C(=O)NC(Cc1ccccc1)C(=O)C(=O)NC(C)(C)C (stereo partly drawn) [Example 15, N-((2S)-1-((4-(tert-butylamino)-3,4-dioxo-1-phenylbutan-2-yl)amino)-4-methyl-1-oxopentan-2-yl)pyrazine-2-carboxamide]
Second: CC(C)C[C@H](NC(=O)c1cccnn1)C(=O)NC(Cc1ccccc1)C(=O)C(=O)NC(C)(C)C (stereo partly drawn) [Example 55, Pyridazine-3-carboxylic acid [(1S)-1-(1-benzyl-2-tert-butylcarbamoyl-2-oxo-ethylcarbamoyl)-3-methyl-butyl]-amide]
The inhibition at 25 µM of the first is lower: 1 to 15% for the first, 15 to 30% for the second.

First: CCNC(=O)C(=O)C(Cc1ccccc1)NC(=O)[C@H](CC(C)C)NC(=O)OC(C)(C)C (stereo partly drawn) [Example 64, tert-butyl (2S)-1-(4-(ethylamino)-3,4-dioxo-1-phenylbutan-2-ylamino)-4-methyl-1-oxopentan-2-ylcarbamate]
Second: COCCOC(=O)N[C@@H](CC(C)C)C(=O)NC(Cc1ccccc1)C(=O)C(=O)NOC (stereo partly drawn) [Example 67, [(1S)-1-(1-benzyl-2-methoxycarbamoyl-2-oxo-ethylcarbamoyl)-3-methyl-butyl]-carbamic acid 2-methoxy-ethyl ester]
The inhibition at 25 µM of the first is higher: 30 to 80% for the first, 15 to 30% for the second.

`CC(C)C[C@H](NC(=O)c1ccc(C(F)(F)F)nc1)C(=O)NC(Cc1ccccc1)C(=O)C(=O)NC(C)(C)C` (stereo partly drawn) [Example 32, N-((2S)-1-(4-(tert-butylamino)-3,4-dioxo-1-phenylbutan-2-ylamino)-4-methyl-1-oxopentan-2-yl)-6-(trifluoromethyl)nicotinamide] and `CONC(=O)C(=O)C(Cc1ccccc1)NC(=O)[C@H](CC(C)C)NC(=O)c1ccc2c(c1)OCO2` (stereo partly drawn) [Example 62, Benzo[1,3]dioxole-5-carboxylic acid [(1S)-1-(1-benzyl-2-methoxycarbamoyl-2-oxo-ethylcarbamoyl)-3-methyl-butyl]-amide] fall in the same range of inhibition at 25 µM: 30 to 80% for the first, 30 to 80% for the second.

For `CC(C)C[C@H](NC(=O)c1ccccc1)C(=O)NC(Cc1ccccc1)C(=O)C(=O)NCc1ccccc1` (stereo partly drawn) [Example 59, N-[(1S)-1-(1-benzyl-2-benzylcarbamoyl-2-oxo-ethylcarbamoyl)-3-methyl-butyl]-benzamide], the inhibition at 25 µM was 30 to 80%.
